Organism: Rattus norvegicus
Assay: DrugMatrix - Regimen: Daily Repeat
Type: toxicity, organism-based, Sprague-Dawley
Set-up: regimen Daily Repeat, gender Male, age 6-8 weeks
Conditions: in vivo, po, route oral GAVAGE, […]; for ABSOLUTE BASOPHIL / ABSOLUTE EOSINOPHIL / ABSOLUTE LYMPHOCYTE / ABSOLUTE MONOCYTE / ABSOLUTE SEGMENTED NEUTROPHIL / BASOPHIL / EOSINOPHIL / ERYTHROCYTE COUNT / HEMATOCRIT / HEMOGLOBIN / LEUKOCYTE COUNT / LYMPHOCYTE / MEAN CORPUSCULAR HEMOGLOBIN / MEAN CORPUSCULAR HEMOGLOBIN CONCENTRATION / MEAN CORPUSCULAR VOLUME / MONOCYTE / NEUTROPHIL / NUCLEATED RED BLOOD CELLS / PLATELET COUNT: tissue Blood; for ALANINE AMINOTRANSFERASE / ALBUMIN / ALKALINE PHOSPHATASE / ASPARTATE AMINOTRANSFERASE / BLOOD UREA NITROGEN / CARBON DIOXIDE / CHLORIDE / CHOLESTEROL / CREATINE PHOSPHOKINASE / CREATININE / GLUCOSE / LACTATE DEHYDROGENASE / LIPASE / PHOSPHORUS / POTASSIUM / SODIUM / TOTAL BILIRUBIN / TOTAL PROTEIN / URIC ACID: tissue Plasma
[1] = 0 mg/kg, 72 h, dose level Control, time 3 day
[2] = 0 mg/kg, 120 h, dose level Control, time 5 day
[3] = 11 mg/kg, 72 h, dose level High, time 3 day

C[C@H]1O[C@@H](O[C@H]2[C@@H](O)C[C@H](O[C@H]3[C@@H](O)C[C@H](O[C@H]4CC[C@@]5(C)[C@H](CC[C@@H]6[C@@H]5C[C@@H](O)[C@]5(C)[C@@H](C7=CC(=O)OC7)CC[C@]65O)C4)O[C@@H]3C)O[C@@H]2C)C[C@H](O)[C@@H]1O [DIGOXIN]
ABSOLUTE BASOPHIL [1]: 0 CELLS/uL | ABSOLUTE EOSINOPHIL [1]: 0 CELLS/uL | ABSOLUTE LYMPHOCYTE [1]: 8493 CELLS/uL | ABSOLUTE MONOCYTE [1]: 127 CELLS/uL | ABSOLUTE SEGMENTED NEUTROPHIL [1]: 896.67 CELLS/uL | BASOPHIL [1]: 0% | EOSINOPHIL [1]: 0% | ERYTHROCYTE COUNT [1]: 5.53 x10E6/uL | HEMATOCRIT [1]: 34.07% | HEMOGLOBIN [1]: 13.28 G/DL | LEUKOCYTE COUNT [1]: 9.52 x10E3/uL | LYMPHOCYTE [1]: 89.17% | MEAN CORPUSCULAR HEMOGLOBIN [1]: 24.07 pg | MEAN CORPUSCULAR HEMOGLOBIN CONCENTRATION [1]: 39.03 G/DL | MEAN CORPUSCULAR VOLUME [1]: 61.62 fL | MONOCYTE [1]: 1.33% | NEUTROPHIL [1]: 9.5% | NUCLEATED RED BLOOD CELLS [1]: 0.17 /100WBC | PLATELET COUNT [1]: 1054.17 x10E3/uL | ALANINE AMINOTRANSFERASE [1]: 77.67 u/L | ALBUMIN [1]: 4.08 G/DL | ALKALINE PHOSPHATASE [1]: 404.5 u/L | ASPARTATE AMINOTRANSFERASE [1]: 83.17 u/L | BLOOD UREA NITROGEN [1]: 14.33 mg/dL | CARBON DIOXIDE [1]: 33.17 mmol/L | CHLORIDE [1]: 101 MEQ/L | CHOLESTEROL [1]: 76.33 mg/dL | CREATINE PHOSPHOKINASE [1]: 184.5 u/L | CREATININE [1]: 0.13 mg/dL | GLUCOSE [1]: 163.67 mg/dL | LACTATE DEHYDROGENASE [1]: 130.33 u/L | LIPASE [1]: 11 u/L | PHOSPHORUS [1]: 9.27 mg/dL | POTASSIUM [1]: 6.26 MEQ/L | SODIUM [1]: 143.57 MEQ/L | TOTAL BILIRUBIN [1]: 0.18 mg/dL | TOTAL PROTEIN [1]: 5.82 G/DL | URIC ACID [1]: 1.38 mg/dL | ABSOLUTE BASOPHIL [2]: 0 CELLS/uL | ABSOLUTE EOSINOPHIL [2]: 0 CELLS/uL | ABSOLUTE LYMPHOCYTE [2]: 8546.17 CELLS/uL | ABSOLUTE MONOCYTE [2]: 49.5 CELLS/uL | ABSOLUTE SEGMENTED NEUTROPHIL [2]: 554.33 CELLS/uL | BASOPHIL [2]: 0% | EOSINOPHIL [2]: 0% | ERYTHROCYTE COUNT [2]: 5.36 x10E6/uL | HEMATOCRIT [2]: 33.38% | HEMOGLOBIN [2]: 13.2 G/DL | LEUKOCYTE COUNT [2]: 9.15 x10E3/uL | LYMPHOCYTE [2]: 93.17% | MEAN CORPUSCULAR HEMOGLOBIN [2]: 24.68 pg | MEAN CORPUSCULAR HEMOGLOBIN CONCENTRATION [2]: 39.58 G/DL | MEAN CORPUSCULAR VOLUME [2]: 62.38 fL | MONOCYTE [2]: 0.5% | NEUTROPHIL [2]: 6.33% | NUCLEATED RED BLOOD CELLS [2]: 0.17 /100WBC | PLATELET COUNT [2]: 1099.33 x10E3/uL | ALANINE AMINOTRANSFERASE [2]: 62.33 u/L | ALBUMIN [2]: 4.1 G/DL | ALKALINE PHOSPHATASE [2]: 419 u/L | ASPARTATE AMINOTRANSFERASE [2]: 83.17 u/L | BLOOD UREA NITROGEN [2]: 15.5 mg/dL | CARBON DIOXIDE [2]: 33.17 mmol/L | CHLORIDE [2]: 98 MEQ/L | CHOLESTEROL [2]: 58.33 mg/dL | CREATINE PHOSPHOKINASE [2]: 393.17 u/L | CREATININE [2]: 0.18 mg/dL | GLUCOSE [2]: 163 mg/dL | LACTATE DEHYDROGENASE [2]: 111.5 u/L | LIPASE [2]: 9.5 u/L | PHOSPHORUS [2]: 10.02 mg/dL | POTASSIUM [2]: 5.73 MEQ/L | SODIUM [2]: 143.65 MEQ/L | TOTAL BILIRUBIN [2]: 0.2 mg/dL | TOTAL PROTEIN [2]: 5.85 G/DL | URIC ACID [2]: 0.78 mg/dL | ABSOLUTE BASOPHIL [3]: 0 CELLS/uL | ABSOLUTE EOSINOPHIL [3]: 0 CELLS/uL | ABSOLUTE LYMPHOCYTE [3]: 7683.67 CELLS/uL | ABSOLUTE MONOCYTE [3]: 95.67 CELLS/uL | ABSOLUTE SEGMENTED NEUTROPHIL [3]: 254 CELLS/uL | BASOPHIL [3]: 0% | EOSINOPHIL [3]: 0% | ERYTHROCYTE COUNT [3]: 6.46 x10E6/uL | HEMATOCRIT [3]: 39.07% | HEMOGLOBIN [3]: 14.83 G/DL | LEUKOCYTE COUNT [3]: 8.03 x10E3/uL | LYMPHOCYTE [3]: 95.67% | MEAN CORPUSCULAR HEMOGLOBIN [3]: 22.9 pg | MEAN CORPUSCULAR HEMOGLOBIN CONCENTRATION [3]: 37.9 G/DL | MEAN CORPUSCULAR VOLUME [3]: 60.4 fL | MONOCYTE [3]: 1% | NEUTROPHIL [3]: 3.33% | NUCLEATED RED BLOOD CELLS [3]: 0 /100WBC | PLATELET COUNT [3]: 1036 x10E3/uL | ALANINE AMINOTRANSFERASE [3]: 99.67 u/L | ALBUMIN [3]: 4.37 G/DL | ALKALINE PHOSPHATASE [3]: 416 u/L | ASPARTATE AMINOTRANSFERASE [3]: 100.33 u/L | BLOOD UREA NITROGEN [3]: 11.67 mg/dL | CARBON DIOXIDE [3]: 33 mmol/L | CHLORIDE [3]: 100 MEQ/L | CHOLESTEROL [3]: 90.67 mg/dL | CREATINE PHOSPHOKINASE [3]: 245.33 u/L | CREATININE [3]: 0.1 mg/dL | GLUCOSE [3]: 142.33 mg/dL | LACTATE DEHYDROGENASE [3]: 125.67 u/L | LIPASE [3]: 10.33 u/L | PHOSPHORUS [3]: 8.27 mg/dL | POTASSIUM [3]: 6.27 MEQ/L | SODIUM [3]: 143.3 MEQ/L | TOTAL BILIRUBIN [3]: 0.2 mg/dL | TOTAL PROTEIN [3]: 6.3 G/DL | URIC ACID [3]: 1 mg/dL
